Data on three molecules can be found in ChEMBL document CHEMBL1149295, “A combined QM/MM approach to protein--ligand interactions: polarization effects of the HIV-1 protease on selected high affinity inhibitors” (J Med Chem, 2004).

SMILES strings stand for the structures.

This assay in a line: Inhibition of HIV1 protease. Details: species or system Human immunodeficiency virus 1.
For `Nc1cccc(CN2C(=O)N(Cc3cccc(N)c3)[C@H](Cc3ccccc3)[C@H](O)[C@@H](O)[C@H]2Cc2ccccc2)c1` [MOZENAVIR], the Ki was 0.41 nM.

`Cc1c(O)cccc1C(=O)N[C@@H](CSc1ccccc1)[C@H](O)CN1C[C@H]2CCCC[C@H]2C[C@H]1C(=O)NC(C)(C)C` [NELFINAVIR] came in with a Ki of 0.28 nM.

Molecule `CCC[C@@]1(CCc2ccccc2)CC(O)=C([C@H](CC)c2cccc(NS(=O)(=O)c3ccc(C(F)(F)F)cn3)c2)C(=O)O1` [TIPRANAVIR] showed a Ki of 0.008 nM.
